Laboratory results published in patent publication US20180057505A1, “BICYCLIC HETEROARYL COMPOUNDS USEFUL AS INHIBITORS OF THE PAR-2 SIGNALING PATHWAY” (VERTEX PHARMACEUTICALS INCORPORATED, priority 2015, published 2018).

Experiments:
Format in all cases: cell-based
[1] = tested on: UTP-stimulated Ca2+ response in HT-29 cells; test: Ca FLIPR TETRA assay, ANTAGONIST mode, activator 0.6 μM UTP; conditions: for IC50: HT-29 cells, activator 0.6 μM UTP
Summary of the method: (§1)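 HT-29 cells in 1% FBS/McCoy's overnight, loaded with FLIPR Calcium 5 dye (45 min 37 °C, 15 min r.t.); compounds added and read for intrinsic Ca2+ activation, then after 30 min r.t. stimulated with fixed activator: 8 μM SLIGKV, 0.6 μM UTP, 1 U/mL thrombin or 3.1 U/mL trypsin (final).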

PAR2 (HT-29 cells) [2] = molecular target: T1, PAR2 (HT-29 cells) (Homo sapiens, UniProt P55085); test: Ca FLIPR TETRA assay, ANTAGONIST mode, activator 3.1 U/mL trypsin; conditions: for IC50: HT-29 cells, activator 3.1 U/mL trypsin
T1 construct: host or cells: HT-29
T1 sequence (P55085 26-397): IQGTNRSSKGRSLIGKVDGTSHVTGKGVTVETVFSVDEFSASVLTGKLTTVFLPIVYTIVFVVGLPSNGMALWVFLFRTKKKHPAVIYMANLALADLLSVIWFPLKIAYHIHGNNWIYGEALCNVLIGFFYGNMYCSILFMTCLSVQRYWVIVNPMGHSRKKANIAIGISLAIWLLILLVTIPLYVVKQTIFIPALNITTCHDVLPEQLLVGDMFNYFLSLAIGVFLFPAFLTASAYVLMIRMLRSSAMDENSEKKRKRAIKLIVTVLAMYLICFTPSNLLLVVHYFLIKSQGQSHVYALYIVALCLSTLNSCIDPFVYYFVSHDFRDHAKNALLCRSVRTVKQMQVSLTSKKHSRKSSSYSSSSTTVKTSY
Summary of the method: as §1

PAR2 (HT-29 cells) [3] = molecular target: T1, PAR2 (HT-29 cells); test: Ca FLIPR TETRA assay, ANTAGONIST mode, activator 8 μM SLIGKV; conditions: HT-29 cells, activator 8 μM SLIGKV
Summary of the method: as §1

[4] = tested on: Thrombin-stimulated Ca2+ response in HT-29 cells; test: Ca FLIPR TETRA assay, ANTAGONIST mode, activator 1 U/mL Thrombin; conditions: HT-29 cells, activator 1 U/mL Thrombin
Summary of the method: as §1

[5] = Method A: maximal concentration of antagonist 0.1, 1 or 2 μM
[6] = maximal antagonist concentration per Method (A: 0.1, 1 or 2 μM; B: 50 μM)

| IC50 ([1]; Homo sapiens) [nM] | IC50 (PAR2 (HT-29 cells) [2]; [5]) [nM] | IC50 (PAR2 (HT-29 cells) [3]; [5]) [nM] | IC50 ([4]; Homo sapiens) [nM] | IC50 (PAR2 (HT-29 cells) [2]; [6]) [nM] | IC50 (PAR2 (HT-29 cells) [3]; [6]) [nM] | Trypsin, % @ 50 (PAR2 (HT-29 cells) [2]; @ 50 (μM)) [% @ 50] | IC50 [1] [nM] | IC50 [4] [nM] | Compound | inhibition at 50 µM ([1]; Homo sapiens, HT-29, @ 50 (μM)) [%] |
| --- | --- | --- | --- | --- | --- | --- | --- | --- | --- | --- |
| > 2000 | 0.4 | 0.2 | > 2000 | – | – | – | – | – | CC(C)(C)c1cc(-c2ccc(Cl)c(F)c2)nc2cc(C(=O)N3CCN(C(=O)CC4(C(=O)O)CCCC4)CC3(C)C)oc12 [Example I-324] | – |
| > 2000 | 660 | 450 | > 2000 | – | – | – | – | – | CC(C)(C)c1cc(-c2ccc(F)cc2)nc2cc(C(=O)N3CCN(N4CCC(=O)NCC4(C)C)CC3(C)C)oc12 [Example I-453] | – |
| > 2000 | 27.7 | 18 | > 2000 | – | – | – | – | – | CC(C)(C)c1cc(-c2ccc(Cl)c(F)c2)nc2cc(C(=O)N3CCN(C(=O)[C@H]4CCS(=O)(=O)N4)CC3(C)C)oc12 [Example I-473] | – |
| > 2000 | 310 | 75 | > 2000 | – | – | – | – | – | Cc1c[nH]nc1N1CCN(C(=O)c2cc3nc(C4CCC(C)(C)CC4)cc(C(C)(C)C)c3o2)C(C)(C)C1=O [Example I-313] | – |
| > 2000 | – | – | > 2000 | 31 | 45 | – | – | – | CC(C)(C)c1cc(-c2ccc(Cl)c(F)c2)nc2cc(C(=O)N3CCN(c4ccnc(C(=O)O)c4)CC3(C)C)oc12 [Example I-261] | – |
| 17000 | – | – | 21000 | 67 | 57 | – | – | – | COCCOCC(=O)N1CCN(C(=O)c2cc3nc(-c4ccc(F)cc4)cc(C4(C)CC4)c3o2)C(C)(C)C1 [Example I-37] | – |
| – | – | – | > 50000 | – | 22 | 66 | – | – | CC(C)c1cc(-c2ccc(F)cc2)nc2cc(C(=O)N3CCN(C(=O)C4CCCC4)[C@@H](C)C3)oc12 [Example I-81] | 46 |
| 23000 | – | – | 21000 | 20 | 14 | – | – | – | CC1(c2cc(-c3ccc(F)cc3)nc3cc(C(=O)N4CCN(C(=O)C(C)(O)C(F)(F)F)CC4(C)C)oc23)CC1 (stereo not drawn) [Example I-39] | – |
| 21000 | – | – | 29000 | 26 | 10 | – | – | – | CC(C)c1cc(-c2ccc(F)cc2)nc2cc(C(=O)N3CCN(C(=O)C(C)(O)C(F)(F)F)CC3(C)C)oc12 (stereo not drawn) [Example I-68] | – |
| > 1100 | 0.8 | 0.6 | > 1100 | – | – | – | – | – | CC(C)[C@@H](CC(=O)O)C(=O)N1CCN(C(=O)c2cc3nc(-c4ccc(Cl)c(F)c4)cc(C(C)(C)C)c3o2)C(C)(C)C1 [Example I-373] | – |
| > 1000 | – | – | > 1000 | 8.2 | 6 | – | – | – | Cc1ncc(C(=O)N2CCN(C(=O)c3cc4nc(-c5ccc(C(F)(F)F)cc5)cc(C(C)(C)C)c4o3)C(C)(C)C2)[nH]1 [Example I-170] | – |
| 1600 | 0.6 | 0.5 | > 2000 | – | – | – | – | – | CC(C)(C)c1cc(C2CC3(CCC3)C2)nc2cc(C(=O)N3CCN(c4ccc(C(=O)O)cn4)CC3(C)C)oc12 [Example I-443] | – |
| > 2000 | 0.1 | > 2000 | > 2000 | – | – | – | – | – | Cc1cc(C(=O)O)nc(N2CCN(C(=O)c3cc4nc(-c5ccc(Cl)c(F)c5)cc(C(C)(C)C)c4o3)C(C)(C)C2)c1 [Example I-494] | – |
| 22000 | – | – | 13000 | 67 | 110 | – | – | – | CC(C)c1nc(-c2ccc(F)cc2)nc2cc(C(=O)N3CCN(C(=O)[C@H](O)CC(C)(C)C)CC3(C)C)oc12 [Example I-126] | – |
| > 25000 | – | – | 50000 | 29 | 6.3 | – | – | – | CO[C@@H](C(=O)N1CCN(C(=O)c2cc3nc(-c4ccc(F)cc4)cc(C(C)C)c3o2)C[C@@H]1C)c1ccccc1 [Example I-84] | – |
| > 2000 | – | – | > 2000 | 41 | 57 | – | – | – | CC(C)(C)c1cc(-c2ccc(Cl)cc2)nc2cc(C(=O)N3CCN(c4cccnc4)CC3(C)C)oc12 [Example I-269] | – |
| 13000 | – | – | 14000 | 3.1 | 2.3 | – | – | – | CC(C)c1cc(-c2ccc(F)cc2)nc2cc(C(=O)N3CCN(C(=O)C4CC4(F)F)CC3(C)C)oc12 (stereo not drawn) [Example I-72] | – |
| > 2000 | – | – | > 2000 | 20 | 16 | – | – | – | Cc1cc(-c2cc(C(C)(C)C)c3oc(C(=O)N4CCN(c5cn[nH]c5)C(=O)C4(C)C)cc3n2)ccc1Cl [Example I-275, 4-[7-tert-butyl-5-(4-chloro-3-methyl-phenyl)furo[3,2-b]pyridine-2-carbonyl]-3,3-dimethyl-1-(1H-pyrazol-4-yl)piperazin-2-one] | – |
| 13000 | – | – | 18000 | 9100 | 7600 | – | – | – | CC(C)c1cc(-c2ccc(F)cc2)nc2cc(C(=O)N3CCN(C(=O)C(C)(C)O)C[C@H]3C)oc12 [Example I-101] | – |
| – | 0.9 | 0.6 | – | – | – | – | > 1010 | > 1010 | Cc1nc(N2CCN(C(=O)c3cc4nc(-c5ccc(Cl)cc5)cc(C(C)(C)C)c4o3)C(C)(C)C2)ncc1C(=O)O [Example I-410] | – |
| 810 | 0.8 | 0.6 | 810 | – | – | – | – | – | CC1(C)CCC(c2cc(C(C)(C)C)c3oc(C(=O)N4CCN(c5ccc(C(=O)O)cn5)CC4(C)C)cc3n2)CC1 [Example I-413] | – |
| 960 | 1.2 | 0.5 | > 1010 | – | – | – | – | – | Cc1nc(N2CCN(C(=O)c3cc4nc(C5CCC(C)(C)CC5)cc(C(C)(C)C)c4o3)C(C)(C)C2)ncc1C(=O)O [Example I-465] | – |
| 560 | 0.5 | 0.4 | 660 | – | – | – | – | – | CC(C)(C)c1cc(-c2ccc(Cl)c(F)c2)nc2cc(C(=O)N3CCN(c4nccc(C(=O)O)n4)CC3(C)C)oc12 [Example I-461] | – |
| > 2000 | 0.3 | 0.3 | > 2000 | – | – | – | – | – | CC(C)(C)c1cc(-c2ccc(Cl)c(F)c2)nc2cc(C(=O)N3CCN(c4cccc(C(=O)NS(C)(=O)=O)n4)CC3(C)C)oc12 [Example I-540] | – |
| > 1000 | – | – | > 1000 | 3.9 | 3.1 | – | – | – | CC(C)(C)c1cc(-c2ccc(C(F)(F)F)cc2)nc2cc(C(=O)N3CCN(C(=O)[C@H]4C[C@@](C)(O)C4)CC3(C)C)oc12 [Example I-158] | – |
| > 1000 | – | – | > 1000 | 12 | 5.7 | – | – | – | CC(C)(C)c1cc(-c2ccc(F)cc2)nc2cc(C(=O)N3CCN(C(=O)c4ncccn4)CC3(C)C)oc12 [Example I-184] | – |
| > 1000 | – | – | > 1000 | 3 | 2.8 | – | – | – | CC(C)(C)c1cc(-c2ccc(Cl)cc2)nc2cc(C(=O)N3CCN(C(=O)c4ccn[nH]4)CC3(C)C)oc12 [Example I-168] | – |
| > 2000 | 9.6 | 14 | > 2000 | – | – | – | – | – | Cn1cnnc1N1CCN(C(=O)c2cc3nc(-c4ccc(Cl)cc4)cc(C(C)(C)C)c3o2)C(C)(C)C1 [Example I-505] | – |
| 23000 | – | – | 24000 | 1900 | 940 | – | – | – | CC(C)c1nc(-c2ccc(F)cc2)nc2cc(C(=O)N3CCNC(=O)C3(C)C)oc12 [Example I-124] | – |
| > 2000 | 76 | 65 | > 2000 | – | – | – | – | – | CC(C)(C)c1cc(C2CC3(CCC3)C2)nc2cc(C(=O)N3CCN(C(=O)[C@@H]4CNCCO4)CC3(C)C)oc12 [Example I-444] | – |
